Source: ChEMBL document CHEMBL3301361, “Experimental in vitro DMPK and physicochemical data on a set of publicly disclosed compounds”
≈ marks a conversion by molar mass, not a printed value.

Experiments:
physchem [1] = conditions: octan-1-ol/water
in vitro [2] = conditions: human, plasma
in vitro [3] = conditions: hepatocytes
in vitro [4] = conditions: SD, HW or BN, rat, plasma
in vitro [5] = conditions: human, hepatocytes
in vitro [6] = conditions: mouse, plasma
in vitro [7] = conditions: human
physchem [8] = test: physchem
in vitro [9] = conditions: Beagle, dog, plasma
in vitro [10] = conditions: Dunkin Hartley, guinea pig, plasma
physchem [11] = conditions: pH 7.4 buffer
physchem [12] = test: physchem; remark: listed apart in the source

Row | SMILES | logD (physchem [1]; pH 7.4, LogD7.4) | fraction unbound at 5 h (in vitro [2]; PPB) | fraction unbound at 5 h (in vitro [4]) | fraction unbound at 5 h (in vitro [6]) | fraction unbound at 5 h (in vitro [9]) | further results
1 | CCOC(=O)C1=C(C)NC(C)=C(C(C)=O)[C@H]1c1cccc2c(=O)cc(C)oc12 | 2.63 | 0.148 | 0.0008 | 0.0016 | – | hepatocyte CLint (in vitro [3]): 105 µL/min/1e6 cells; hepatocyte CLint (in vitro [5]): 45.7 µL/min/1e6 cells; microsomal CLint (in vitro [7]; liver microsomes): > 150 µL/min/mg; pKa (physchem [8]): 2.22
2 | C[C@H](Nc1ncc(F)c(Nc2cc(C3CC3)[nH]n2)n1)c1ccc(F)cn1 | 3.14 | 0.0801 | 0.035 | 0.0418 | 0.183 | –
3 | Cc1ccc2c(OCCN3CCC(Cc4cccc(NS(C)(=O)=O)c4)CC3)cccc2n1 | – | – | 0.0532 | – | – | fraction unbound at 5 h (in vitro [10]): 0.0437
4 | CN(C)CCC1CCN(c2cc(C(=O)NC[C@H]3CC[C@H](CNC(=O)OC(C)(C)C)CC3)c3ccccc3n2)CC1 | – | 0.0335 | 0.04 | 0.0079 | 0.0066 | –
5 | N=C(NCCCCc1ccc(OCC(O)CO)cc1)NC(=O)c1nc(Cl)c(N)nc1N (stereo unspecified) [552-02 FREE BASE] | – | 0.249 | 0.314 | – | – | fraction unbound at 5 h (in vitro [10]): 0.299
6 | Cc1ccc2c(c1)c(-c1ccnc3c(Cl)cccc13)c(C)n2CC(=O)O | 1.27 | – | 0.0077 | 0.0229 | 0.0041 | solubility thermodynamic (physchem [11]): 1320 µM (≈ 481 µg/mL); microsomal CLint (in vitro [7]; liver microsomes): 7 µL/min/mg; pKa (physchem [8]): 4.4; pKa (physchem [12]): 2.9
7 | C[C@@H](NC(=O)Cc1ccc(C2CC2)cc1)c1ccc(OCC(F)(F)F)cn1 | – | 0.0041 | 0.0044 | – | – | fraction unbound at 5 h (in vitro [10]): 0.0006
8 | COc1ccc2ncc(F)c(CCN3CCC(NCc4cc5c(cn4)OCCO5)CC3)c2n1 | 1.46 | 0.173 | – | 0.36 | 0.0968 | hepatocyte CLint (in vitro [3]): 138 µL/min/1e6 cells
9 | COc1ccccc1CCNCc1cccc(CCNC[C@H](O)c2ccc(O)c3[nH]c(=O)sc23)c1 | 0.82 | – | 0.0836 | – | – | fraction unbound at 5 h (in vitro [10]): 0.276
10 | CO[C@H]1CC[C@]2(CC1)Cc1ccc(OCC(C)C)cc1C21N=C(C)C(N)=N1 (stereo partly specified) | 3.4 | 0.201 | – | 0.349 | – | hepatocyte CLint (in vitro [5]): 7.24 µL/min/1e6 cells
11 | C[C@H](c1nc2ncccc2c(=O)n1-c1ccc(Cl)cc1)N(CC1CCS(=O)(=O)CC1)C(=O)Cc1ccc(C(F)(F)F)c(F)c1 | 2.9 | 0.11 | 0.101 | 0.0477 | 0.0544 | hepatocyte CLint (in vitro [3]): 7.08 µL/min/1e6 cells; microsomal CLint (in vitro [7]; microsomes): 5.25 µL/min/mg
12 | N#Cc1c(O)c2c(-c3ccc(-c4ccccc4O)cc3)csc2[nH]c1=O | – | – | – | 0.0063 | – | hepatocyte CLint (in vitro [3]): 52.5 µL/min/1e6 cells; microsomal CLint (in vitro [7]; liver microsomes): < 3 µL/min/mg
13 | COc1nc(Br)cnc1NS(=O)(=O)c1ccc(Cl)s1 | 0.99 | 0.0013 | 0.002 | 0.0191 | 0.0124 | solubility thermodynamic (physchem [11]): 891 µM (≈ 343 µg/mL); pKa (physchem [12]): 4.1
14 | Cc1nccc(-c2ccc(-c3nc4ccncc4c(O)c3C#N)cc2)c1Cl | 2 | 0.0014 | 0.0014 | 0.0088 | – | –
15 | CC(C)C[C@H](CO)Nc1nc(S[C@@H](C)c2ccccc2F)nc2nc(N)sc12 | – | 0.0011 | – | 0.002 | 0.002 | hepatocyte CLint (in vitro [5]): 30.9 µL/min/1e6 cells
16 | CC(C)Oc1cc(Nc2nc(N[C@@H](C)c3ncc(F)cn3)ncc2Cl)n[nH]1 | – | 0.112 | – | 0.0736 | 0.204 | –
17 | CC1(CCCc2cc(=O)oc3[nH]c(=O)[nH]c(=O)c23)CC1 [SCH-900271] | – | 0.0149 | 0.0149 | 0.0268 | – | hepatocyte CLint (in vitro [3]): 42.7 µL/min/1e6 cells; hepatocyte CLint (in vitro [5]): < 3 µL/min/1e6 cells; microsomal CLint (in vitro [7]; liver microsomes): < 3 µL/min/mg
18 | CC(C)[C@H](C(=O)Nc1nccs1)c1ccc(Cl)cc1 | – | 0.0074 | 0.0106 | 0.0111 | – | hepatocyte CLint (in vitro [5]): 12 µL/min/1e6 cells
19 | O=C(Nc1ccc(N2CCNCC2)cc1)c1ccc(-c2ccc(Cl)cc2)o1 | 2.4 | 0.0268 | 0.0055 | 0.03 | – | hepatocyte CLint (in vitro [5]): < 3 µL/min/1e6 cells
20 | CCCN(c1cncnc1)P(=O)(c1ccccc1)c1ccccc1 | – | – | – | – | – | fraction unbound at 5 h (in vitro [10]): 0.529
21 | O=C(c1c2ccccc2cc2ccccc12)N1CCC(N2CCC[C@@H](C(=O)N3CCOCC3)C2)CC1 | – | 0.0661 | 0.266 | 0.266 | 0.289 | –
22 | CCc1c(C(=O)C(N)=O)c2c(OCC(=O)OC)cccc2n1Cc1ccccc1 [VARESPLADIB METHYL] | – | – | – | 0.232 | – | hepatocyte CLint (in vitro [5]): 50.1 µL/min/1e6 cells
23 | N[C@@H](CC(=O)N1CCn2c(nnc2C(F)(F)F)C1)Cc1cc(F)c(F)cc1F [SITAGLIPTIN] | 0.31 | 0.768 | 0.78 | 0.711 | – | –

Row | SMILES | logD (physchem [1]; pH 7.4, LogD7.4) | fraction unbound at 5 h (in vitro [2]; PPB) | fraction unbound at 5 h (in vitro [4]) | fraction unbound at 5 h (in vitro [6]) | fraction unbound at 5 h (in vitro [9]) | further results
24 | CS(=O)(=O)N1CCC(NC(=O)NC23CC4CC(CC(C4)C2)C3)CC1 | 2.7 | 0.289 | 0.262 | 0.17 | – | –
25 | CO[C@H]1CC[C@]2(CC1)Cc1ccc(-c3cncc(Br)c3)cc1C21N=C(C)C(N)=N1 (stereo partly specified) | 3.4 | 0.139 | 0.0661 | 0.0209 | – | –
26 | O=C(CN1CCN(Cc2ccn(-c3ccc(C(F)(F)F)cn3)c2)CC1)NC(c1ccc(F)cc1)c1ccc(F)cc1 | – | 0.0014 | 0.0011 | 0.0013 | 0.0006 | –
27 | C[C@@]1(c2cc(-c3cncnc3)c(F)cc2F)CCSC(N)=N1 [LY-2811376] | 0.8 | 0.46 | – | 0.671 | 0.629 | –
28 | CCc1c(C(=O)C(N)=O)c2c(OCC(=O)O)cccc2n1Cc1ccccc1 [VARESPLADIB] | – | – | 0.0768 | 0.22 | 0.129 | fraction unbound at 5 h (in vitro [2]): 0.124
29 | CC(C)C[C@H](CO)Nc1nc(S[C@@H](C)c2ccccc2)nc2[nH]c(=O)sc12 | 4.3 | 0.001 | – | 0.0009 | 0.0019 | –
30 | FC(F)(F)Oc1ccc(-c2nnc(CCCCc3ccc4cccnc4n3)o2)cc1Cl | – | 0.0008 | – | 0.0043 | – | hepatocyte CLint (in vitro [5]): 24.6 µL/min/1e6 cells
31 | Cc1ccccc1-n1c(Cn2cnc3c(N)ncnc32)nc2cccc(C)c2c1=O | – | – | 0.24 | 0.0801 | – | logD (physchem [1]; pH 7.4): 2.6; fraction unbound at 5 h (in vitro [2]): 0.0136; hepatocyte CLint (in vitro [3]): 24 µL/min/1e6 cells
32 | COc1ccc(Cl)cc1C(=O)NCCc1ccc(S(=O)(=O)NC(=O)NC2CCCCC2)cc1 [GLYBURIDE] | 2.23 | 0.0012 | 0.0012 | 0.0027 | – | solubility thermodynamic (physchem [11]): 10.5 µM (≈ 5.19 µg/mL); hepatocyte CLint (in vitro [5]): 14.4 µL/min/1e6 cells; microsomal CLint (in vitro [7]; liver microsomes): 22 µL/min/mg; pKa (physchem [12]): 3.76
33 | Cc1ncccc1Oc1ncnc(OC2CCN(C(=O)OC(C)C)CC2)c1C | 3.8 | 0.0079 | 0.0313 | 0.0149 | – | –
34 | CN(C)C(=O)C(CCN1CCC(O)(c2ccc(Cl)cc2)CC1)(c1ccccc1)c1ccccc1 [LOPERAMIDE] | – | – | 0.0544 | 0.0358 | – | logD (physchem [1]; pH 7.4): 3.47; fraction unbound at 5 h (in vitro [2]): 0.0736; pKa (physchem [8]): 9.14
35 | Cc1cc(N2CCC[C@@H]2C(=O)NCCc2ccc3c(c2)OCO3)nc(-n2ccnc2)n1 | 2.5 | 0.19 | 0.22 | 0.154 | – | microsomal CLint (in vitro [7]; liver microsomes): > 150 µL/min/mg
36 | Cc1cccc(-c2ccc(CNC(=O)CCCc3ccc4cccnc4n3)cc2)c1 | – | – | – | 0.0022 | – | hepatocyte CLint (in vitro [5]): 60.3 µL/min/1e6 cells
37 | c1ccc2[nH]c(CCc3nc4ccccc4[nH]3)nc2c1 | 3.3 | 0.16 | 0.201 | 0.19 | – | –
38 | CC(C)(F)C[C@H](N[C@@H](c1ccc(-c2ccc(S(C)(=O)=O)cc2)cc1)C(F)(F)F)C(=O)NC1(C#N)CC1 [ODANACATIB] | 2.9 | 0.0606 | 0.0366 | 0.016 | – | –
39 | Cc1ncsc1C(=O)N(Cc1cc(=O)[nH]c2c(F)cccc12)c1cccc(Cl)c1 | – | 0.0209 | 0.0836 | 0.0736 | – | –
40 | CCOc1cc(CN2CCC(NC(=O)c3cncc(C)c3)CC2)cc(OCC)c1-c1ccc(F)cc1 | – | 0.0149 | 0.0119 | 0.0139 | – | –
41 | O=c1cc(OCc2ccccc2)ccn1-c1ccc2c(cnn2CCN2CCCC2)c1 | 2 | 0.17 | 0.119 | 0.137 | 0.16 | –
42 | CCOc1ncc(C)c2c1[C@H](c1ccc(C#N)cc1OC)C(C(N)=O)=C(C)N2 [FINERENONE] | 2.51 | 0.0752 | 0.0007 | 0.0007 | – | hepatocyte CLint (in vitro [3]): 26.9 µL/min/1e6 cells; microsomal CLint (in vitro [7]; microsomes): 97.7 µL/min/mg
43 | C[C@H](Nc1ncc(Cl)c(Nc2cc(C3CC3)[nH]n2)n1)c1ccc(F)cn1 | – | 0.0358 | 0.009 | 0.0358 | 0.11 | –
44 | C[C@@H]1CN(C(=O)[C@@H]2CN(C(C)(C)C)C[C@H]2c2ccc(F)cc2F)C[C@H](C)[C@@]1(O)c1ccccc1 [PF-00446687] | – | 0.232 | 0.19 | 0.262 | – | hepatocyte CLint (in vitro [5]): 25.1 µL/min/1e6 cells
45 | CS(=O)(=O)Nc1ccc2[nH]c(Cc3ccc(Oc4ccccc4)cc3)nc2c1 | – | 0.0055 | 0.0061 | 0.0059 | – | –
